Patent publication US20140135310A1, “SULPHONAMIDE DERIVATIVES OF ALICYCLIC AMINES FOR THE TREATMENT OF CENTRAL NERVOUS SYSTEM DISEASES” (Adamed Sp. z o.o., priority 2011, published 2014)

Tests used:
[1] = biological target: dopaminergic receptors D3 (Homo sapiens, UniProt P35462); experiment: Radioligand binding assay, dopaminergic D3 receptors; conditions: test compound 1×10^−6 M
Procedure, shortened: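 Competition radioligand binding at human D2, D3 and D4.4 receptors, detected by scintillation counting; nonspecific binding defined with excess unlabelled ligand. Results as percent inhibition of control specific binding; IC50 by Hill-equation nonlinear regression; Ki via Cheng-Prusoff, with radioligand KD from Scatchard plot.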

5-HT7 receptor = biological target: T1, 5-HT7 receptor (Homo sapiens, UniProt P34969); experiment: Radioligand binding assay, serotoninergic 5-HT7 receptors; conditions: binding assay result in %, Table 5a;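 further: test compound at 1 µM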
T1 construct: purchased PerkinElmer
T1 sequence (P34969 whole entry): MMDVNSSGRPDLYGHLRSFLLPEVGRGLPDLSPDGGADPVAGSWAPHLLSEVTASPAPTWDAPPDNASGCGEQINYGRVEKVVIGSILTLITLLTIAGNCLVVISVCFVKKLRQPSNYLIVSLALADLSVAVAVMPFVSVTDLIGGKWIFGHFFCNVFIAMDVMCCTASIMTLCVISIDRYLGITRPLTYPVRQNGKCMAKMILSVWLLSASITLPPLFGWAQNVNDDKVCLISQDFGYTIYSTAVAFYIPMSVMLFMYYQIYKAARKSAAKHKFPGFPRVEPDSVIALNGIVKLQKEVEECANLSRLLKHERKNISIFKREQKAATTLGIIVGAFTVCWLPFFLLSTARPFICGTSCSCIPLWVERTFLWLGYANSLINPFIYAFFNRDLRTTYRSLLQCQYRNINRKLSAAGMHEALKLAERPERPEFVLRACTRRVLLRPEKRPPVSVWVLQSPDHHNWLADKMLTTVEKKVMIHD
Procedure, shortened: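 Competition binding at human 5-HT7 receptors with a radioligand, detected by scintillation counting; non-specific binding was defined with excess unlabelled ligand. IC50 came from Hill-equation fits of competition curves, and Ki from Cheng–Prusoff using radioligand concentration and Scatchard-derived KD.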

[2] = biological target: T2, serotonin transporter (SERT) (Homo sapiens, UniProt P31645); experiment: Radioligand binding assay, serotonin transporter (SERT); conditions: binding assay, test compound 1×10^−6 M
T2 construct: expressed in transfected cells; host or cells: CHO cells
T2 sequence (P31645 whole entry): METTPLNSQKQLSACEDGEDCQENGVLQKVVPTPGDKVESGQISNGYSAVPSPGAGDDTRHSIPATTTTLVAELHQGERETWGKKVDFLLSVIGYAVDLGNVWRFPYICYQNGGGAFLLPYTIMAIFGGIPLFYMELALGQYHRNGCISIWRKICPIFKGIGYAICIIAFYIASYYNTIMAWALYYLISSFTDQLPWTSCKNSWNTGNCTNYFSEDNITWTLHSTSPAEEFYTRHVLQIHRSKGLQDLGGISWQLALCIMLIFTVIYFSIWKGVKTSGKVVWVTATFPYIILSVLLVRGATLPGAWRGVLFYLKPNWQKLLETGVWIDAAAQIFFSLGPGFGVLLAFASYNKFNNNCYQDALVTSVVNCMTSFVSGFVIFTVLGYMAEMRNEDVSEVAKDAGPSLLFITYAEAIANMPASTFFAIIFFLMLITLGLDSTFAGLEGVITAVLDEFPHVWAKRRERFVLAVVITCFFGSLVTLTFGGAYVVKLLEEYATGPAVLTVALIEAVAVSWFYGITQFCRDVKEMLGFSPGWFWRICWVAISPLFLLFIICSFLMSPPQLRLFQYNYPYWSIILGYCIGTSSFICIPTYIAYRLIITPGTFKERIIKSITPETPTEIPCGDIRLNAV
Procedure, shortened: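 Radioligand competition binding with scintillation detection; specific binding is total minus binding under excess unlabelled ligand. Reported as % of control specific binding or % inhibition; IC50 from Hill-equation non-linear regression of competition curves, and Ki via Cheng-Prusoff using radioligand concentration and Scatchard-derived KD.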

[3] = biological target: dopaminergic receptors D2 (Homo sapiens, UniProt P14416); experiment: Radioligand binding assay, dopaminergic D2 receptors; conditions: binding assay, test compound 1×10^−6 M
dopaminergic receptors D2, sequence (P14416 whole entry): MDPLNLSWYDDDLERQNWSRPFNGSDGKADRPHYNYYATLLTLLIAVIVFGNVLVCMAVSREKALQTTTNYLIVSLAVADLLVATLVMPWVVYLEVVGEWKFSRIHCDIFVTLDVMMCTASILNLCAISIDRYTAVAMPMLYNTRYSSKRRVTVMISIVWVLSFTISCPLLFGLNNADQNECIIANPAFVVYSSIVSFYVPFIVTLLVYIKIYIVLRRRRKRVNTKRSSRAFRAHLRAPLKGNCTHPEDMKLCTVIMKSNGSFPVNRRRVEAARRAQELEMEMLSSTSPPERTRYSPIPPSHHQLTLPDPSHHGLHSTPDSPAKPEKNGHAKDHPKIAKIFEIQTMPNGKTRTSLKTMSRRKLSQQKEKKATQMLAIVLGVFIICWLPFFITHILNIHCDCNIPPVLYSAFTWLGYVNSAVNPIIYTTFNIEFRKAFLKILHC
Procedure, shortened: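 Competition binding with scintillation counting of bound radioligand; specific binding taken as total minus non-specific binding measured with excess unlabelled ligand. IC50 obtained by Hill-equation non-linear regression of replicate-mean curves, then converted to Ki via Cheng–Prusoff using radioligand concentration and Scatchard-derived KD.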

5-HT2A receptor = biological target: T3, 5-HT2A receptor (Homo sapiens, UniProt P28223); experiment: Radioligand binding assay, serotoninergic 5-HT2A receptors; conditions: binding assay result in %, Table 5a
T3 construct: purchased PerkinElmer
T3 sequence (P28223 whole entry): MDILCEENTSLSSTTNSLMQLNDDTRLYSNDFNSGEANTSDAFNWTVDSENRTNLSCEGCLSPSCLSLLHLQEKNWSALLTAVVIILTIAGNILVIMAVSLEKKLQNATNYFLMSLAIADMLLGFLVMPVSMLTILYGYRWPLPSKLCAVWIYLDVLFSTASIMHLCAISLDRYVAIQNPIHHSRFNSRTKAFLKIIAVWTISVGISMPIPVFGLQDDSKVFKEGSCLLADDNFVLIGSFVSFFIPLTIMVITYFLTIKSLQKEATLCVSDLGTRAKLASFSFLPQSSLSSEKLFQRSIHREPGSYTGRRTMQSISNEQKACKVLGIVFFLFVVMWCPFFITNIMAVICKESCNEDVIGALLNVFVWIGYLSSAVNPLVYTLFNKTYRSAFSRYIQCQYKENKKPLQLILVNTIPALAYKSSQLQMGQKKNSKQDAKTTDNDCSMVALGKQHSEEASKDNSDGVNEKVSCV
Procedure, shortened: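 Radioligand competition binding with scintillation counting; nonspecific binding defined by excess unlabelled ligand. Data as percent inhibition of control specific binding. IC50 by Hill-equation fit of competition curves; Ki by Cheng-Prusoff, with radioligand Kd from Scatchard plot.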

5-HT6 receptor = biological target: T4, 5-HT6 receptor (Homo sapiens, UniProt P50406); experiment: Radioligand binding assay, serotoninergic 5-HT6 receptors; conditions: binding assay result in %, Table 5a;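 further: test compound at 1 µM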
T4 construct: purchased PerkinElmer
T4 sequence (P50406 whole entry): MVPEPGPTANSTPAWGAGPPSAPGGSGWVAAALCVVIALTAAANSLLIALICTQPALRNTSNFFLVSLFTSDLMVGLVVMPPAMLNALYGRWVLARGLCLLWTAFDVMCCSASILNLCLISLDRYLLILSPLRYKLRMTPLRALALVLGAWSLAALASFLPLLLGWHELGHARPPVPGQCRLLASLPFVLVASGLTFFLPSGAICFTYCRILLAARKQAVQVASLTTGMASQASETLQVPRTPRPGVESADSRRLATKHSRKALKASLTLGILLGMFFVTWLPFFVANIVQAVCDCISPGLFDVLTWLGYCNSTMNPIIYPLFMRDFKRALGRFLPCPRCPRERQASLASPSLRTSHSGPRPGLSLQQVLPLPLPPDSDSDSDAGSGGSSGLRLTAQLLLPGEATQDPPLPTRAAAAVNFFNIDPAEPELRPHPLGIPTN
Procedure, shortened: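 Values are Ki from Cheng–Prusoff, taking IC50 from Hill nonlinear regression of competition curves and KD from a Scatchard plot. Specific binding was total minus binding with excess unlabelled ligand. Radioligand displacement was detected by scintillation counting, and data were also reported as percent of control specific binding.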

[4] = biological target: T5, 5-HT1A receptor (rat hippocampus) (Rattus norvegicus, UniProt P19327); experiment: Radioligand binding assay, serotoninergic 5-HT1A receptors; conditions: binding assay result in %, Table 5a;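 further: test compound at 1 µM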
T5 construct: hippocampus; from tissue; host or cells: rat hippocampus
T5 sequence (P19327 1-422): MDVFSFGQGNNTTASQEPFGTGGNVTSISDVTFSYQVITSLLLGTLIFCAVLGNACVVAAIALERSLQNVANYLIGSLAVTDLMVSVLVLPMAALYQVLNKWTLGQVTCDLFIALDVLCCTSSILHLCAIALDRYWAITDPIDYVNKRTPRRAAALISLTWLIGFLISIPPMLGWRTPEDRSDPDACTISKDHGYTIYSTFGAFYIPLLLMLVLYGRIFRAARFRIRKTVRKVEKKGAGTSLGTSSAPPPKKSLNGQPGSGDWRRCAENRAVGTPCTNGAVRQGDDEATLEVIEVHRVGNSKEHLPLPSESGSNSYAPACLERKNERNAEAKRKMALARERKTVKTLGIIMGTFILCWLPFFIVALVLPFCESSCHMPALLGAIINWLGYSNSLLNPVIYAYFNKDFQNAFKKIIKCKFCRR

[5] = test system: α1 adrenergic receptors (rat cerebral cortex); experiment: Radioligand binding assay, adrenergic α1 receptors; conditions: test compound 1×10^−6 M
Procedure, shortened: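 Values derive from radioligand displacement, with non-specific binding defined by excess cold ligand and detection by scintillation. Hill-fit IC50s were converted to Ki via Cheng-Prusoff using Scatchard-derived Kd; percent inhibition of control specific binding also reported.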

dopaminergic receptors D3, sequence (P35462 whole entry): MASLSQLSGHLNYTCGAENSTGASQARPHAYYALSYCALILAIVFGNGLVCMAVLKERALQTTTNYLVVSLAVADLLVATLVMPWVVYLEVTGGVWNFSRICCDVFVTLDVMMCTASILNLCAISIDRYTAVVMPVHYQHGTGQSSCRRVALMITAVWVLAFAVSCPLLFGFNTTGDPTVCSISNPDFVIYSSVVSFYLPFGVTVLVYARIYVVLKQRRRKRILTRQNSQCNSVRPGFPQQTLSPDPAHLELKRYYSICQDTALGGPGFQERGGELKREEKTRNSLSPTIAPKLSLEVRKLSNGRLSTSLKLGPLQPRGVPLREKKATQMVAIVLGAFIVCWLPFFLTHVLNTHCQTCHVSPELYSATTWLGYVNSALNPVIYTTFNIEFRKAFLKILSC

SMILES | inhibition at 1 µM [1] [%] | inhibition at 1 µM (5-HT7 receptor) [%] | inhibition at 1 µM [2] [%] | inhibition at 1 µM [3] [%] | inhibition at 1 µM (5-HT2A receptor) [%] | inhibition at 1 µM (5-HT6 receptor) [%] | inhibition at 1 µM [4] [%] | α1 [%] [5] [%] | D3 [%] [1] [%] | 5-HT7 [%] (5-HT7 receptor) | SERT [%] [2] [%] | D2 [%] [3] [%] | 5-HT2A [%] (5-HT2A receptor) | 5-HT6 [%] (5-HT6 receptor) | 5-HT1A [%] [4] [%]
Cc1cccc(S(=O)(=O)NC2CCN(CCOc3cccc4[nH]ccc34)C2)c1 (stereo not drawn) [Compound 52, N-[1-[2-(1H-Indol-4-yloxy)ethyl]pyrrolidin-3-yl]-3-methylbenzene-sulphonamide] | 106 | 90 | 38 | 77 | 89 | 41 | 90 | 81 | – | – | – | – | – | – | –
Cc1c(S(=O)(=O)NCC2CN(CCOc3cccc4ccccc34)C2)sc2ccc(F)cc12 [Compound 166, 5-Fluoro-3-methyl-N-[[1-[2-(1-naphthyloxy)ethyl]azetidin-3-yl]methyl]benzothiophene-2-sulphonamide] | 101 | 97 | 32 | 82 | 100 | 98 | 78 | 23 | – | – | – | – | – | – | –
O=S(=O)(NCC1CCN(CCOc2ccc3cc[nH]c3c2)CC1)c1cccc2ccccc12 [Compound 71, N-[[1-[2-(1H-Indol-6-yloxy)ethyl]-4-piperidine]methyl]naphthalene-1-sulphonamide] | – | – | – | – | – | – | – | 36 | −1 | 31 | 49 | 27 | 26 | 80 | 28
Cn1ccc2c(S(=O)(=O)NCC3CCN(CCOc4cccc5ccccc45)C3)cccc21 (stereo not drawn) [Compound 275, 1-Methyl-N-[[1-[2-(1-naphthyloxy)ethyl]pyrrolidin-3-yl]methyl]indole-4-sulphonamide] | 94 | 111 | 93 | 66 | 91 | 84 | 86 | 53 | – | – | – | – | – | – | –
O=S(=O)(NCC1CCN(CCOc2nsc3ccccc23)C1)c1ccc2ccccc2c1 (stereo not drawn) [Compound 44, N-[[1-[2-(1,2-Benzothiazol-3-yloxy)ethyl]pyrrolidin-3-yl]methyl]naphthalene-2-sulphonamide] | 52 | 68 | 25 | 76 | 78 | 81 | 62 | 46 | – | – | – | – | – | – | –
O=S(=O)(NC1CCN(CCOc2cccc3c2OCCO3)CC1)c1ccccc1 [Compound 117, N-[1-[2-(2,3-Dihydro-1,4-benzodioxan-8-yloxy)ethyl]-4-piperidine]-benzenesulphonamide] | – | – | – | – | – | – | – | 53 | 29 | 93 | 33 | 24 | 86 | 34 | 76
Cc1c(S(=O)(=O)NCC2CN(CCOc3cccc4c3OCCO4)C2)sc2ccc(Cl)cc12 [Compound 175, 5-Chloro-N-[[1-[2-(2,3-dihydro-1,4-benzodioxin-5-yloxy)ethyl]azetidin-3-yl]methyl]-3-methyl-benzothiophene-2-sulphonamide] | 78 | 92 | 19 | 68 | 105 | 95 | 75 | 50 | – | – | – | – | – | – | –
N#Cc1ccc(S(=O)(=O)NC2CCN(CCCc3noc4cc(F)ccc34)C2)cc1 (stereo not drawn) [Compound 210, 4-Cyano-N-[1-[3-(6-fluoro-1,2-benzoxazol-3-yl)propyl]pyrrolidin-3-yl]benzenesulphonamide] | 27 | 80 | 35 | 64 | 80 | 68 | 8 | 94 | – | – | – | – | – | – | –
O=S(=O)(NC1CCN(CCOc2cccc3c2OCCO3)C1)c1ccccc1 (stereo not drawn) [Compound 96, N-[1-[2-(2,3-Dihydro-1,4-benzodioxan-8-yloxy)ethyl]pyrrolidin-3-yl]-benzenesulphonamide] | – | – | – | – | – | – | – | 60 | 56 | 98 | 11 | 46 | 93 | 5 | 92
O=S(=O)(NCC1CCN(CCOc2cccc3ccccc23)C1)c1ccc2cc(Cl)ccc2c1 (stereo not drawn) [Compound 270, 6-Chloro-N-[[1-[2-(1-naphthyloxy)ethyl]pyrrolidin-3-yl]methyl]naphthalene-2-sulphonamide] | 91 | 94 | 15 | 32 | 86 | 86 | 47 | −5 | – | – | – | – | – | – | –
CC1(C)Cc2cccc(OCCN3CCC(CNS(=O)(=O)c4cccc(O)c4)C3)c2O1 (stereo not drawn) [Compound 113, N-[[1-[2-[(2,2-Dimethyl-3H-benzofuran-7-yl)oxy]ethyl]pyrrolidin-3-yl]methyl]-3-hydroxy-benzenesulphonamide] | 55 | 85 | 18 | 47 | 65 | 52 | 81 | 55 | – | – | – | – | – | – | –
CC1(C)Cc2cccc(OCCN3CCC(CNS(=O)(=O)c4ccc5ccccc5c4)C3)c2O1 (stereo not drawn) [Compound 114, N-[[1-[2-[(2,2-Dimethyl-3H-benzofuran-7-yl)oxy]ethyl]pyrrolidin-3-yl]methyl]naphthalene-2-sulphonamide] | 62 | 97 | 5 | 49 | 90 | 56 | 98 | 27 | – | – | – | – | – | – | –
O=S(=O)(NCC1CCN(CCCc2noc3cc(F)ccc23)C1)c1ccc(Cl)c(Cl)c1 (stereo not drawn) [Compound 253, 3,4-Dichloro-N-[[1-[3-(6-fluoro-1,2-benzoxazol-3-yl)propyl]pyrrolidin-3-yl]methyl]benzenesulphonamide] | 55 | 97 | 12 | 87 | 99 | 101 | 34 | 94 | – | – | – | – | – | – | –
O=S(=O)(NCC1CN(CCOc2cccc3ccccc23)C1)c1cccc2ccccc12 [Compound 168, N-[[1-[2-(1-Naphthyloxy)ethyl]azetidin-3-yl]methyl]naphthalene-1-sulphonamide] | 94 | 92 | 25 | 64 | 96 | 93 | 79 | 31 | – | – | – | – | – | – | –
O=S(=O)(NC1CN(CCOc2cccc3c2OCCO3)C1)c1ccccc1 [Compound 88, N-[1-[2-(2,3-Dihydro-1,4-benzodioxan-8-yloxy)ethyl]azetidin-3-yl]-benzenesulphonamide] | – | – | – | – | – | – | – | −23 | −2 | 84 | −13 | −5 | 34 | 13 | 96
